Source: the supplement of paper PMC4862054

Legend:
Assay in all cases: normalised response (% of control), CellTiter-Glo; higher = more viable cells (100 = DMSO, 0 = benzethonium chloride kill control)
Details in all cases: incubation time: 72 h
[1] = tested on: MDA-MB-231
In short: (§1)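 Breast cancer cell lines, seeded at 20 µl suspension per well, were incubated for 72 h in 384-well plates containing compound at 5 concentrations. These concentrations rose in 10-fold steps over a 10,000-fold range set for each compound. CellTox Green fluorescence (485/520 nm) was read, then CellTiter-Glo luminescence after 10 min at room temperature, and each plate was normalised to 0.1 % DMSO (100) and a positive kill control (0). Values are normalised signals, each at one concentration.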

[2] = tested on: MDA-MB-436
In short: as §1

[3] = tested on: CAL-85-1
In short: as §1

[4] = tested on: BT-474
In short: as §1

[5] = tested on: Hs578T
In short: as §1

[6] = tested on: MFM-223
In short: as §1

[7] = tested on: SK-BR-3
In short: as §1

[8] = tested on: BT-549
In short: as §1

[9] = tested on: MDA-MB-453
In short: as §1

[10] = tested on: MCF-10A
In short: as §1

[11] = tested on: CAL-120
In short: as §1

[12] = tested on: HCC1143
In short: as §1

[13] = tested on: MDA-MB-468
In short: as §1

[14] = tested on: HDQ-P1
In short: as §1

[15] = tested on: HCC1599
In short: as §1

[16] = tested on: CAL-148
In short: as §1

[17] = tested on: HCC1937
In short: as §1

[18] = tested on: DU-4475
In short: as §1

[19] = tested on: CAL-51
In short: as §1

Row | Structure (SMILES) | normalised response [1] [%] | normalised response [2] [%] | normalised response [3] [%] | normalised response [4] [%] | normalised response [5] [%] | normalised response [6] [%] | normalised response [7] [%] | normalised response [8] [%] | normalised response [9] [%] | normalised response [10] [%] | normalised response [11] [%] | normalised response [12] [%] | normalised response [13] [%] | normalised response [14] [%] | normalised response [15] [%] | normalised response [16] [%] | normalised response [17] [%] | normalised response [18] [%] | normalised response [19] [%]
1 | CCCc1cc(C)[nH]c(=O)c1CNC(=O)c1cc(-c2ccnc(N3CCN(C)CC3)c2)cc2c1cnn2C(C)C [GSK343] (10 nM) | 91.7 | 91.1 | 91.6 | 97.2 | 101 | 93.3 | 109 | 96.5 | 94.2 | 103 | 97 | 104 | 87.4 | 97.6 | 103 | 80.2 | 103 | 94 | 81.4
2 | CCc1c(C(=O)C(N)=O)c2c(OCC(=O)O)cccc2n1Cc1ccccc1 [Varespladib] (10 nM) | 99.7 | 96 | 97.3 | 97.2 | 104 | 102 | 99.1 | 92.9 | 95.4 | 105 | 96 | 102 | 98.9 | 97.1 | 95.9 | 104 | 97.7 | 102 | 107
3 | CCc1cnn2c(NCc3ccc[n+]([O-])c3)cc(N3CCCC[C@H]3CCO)nc12 [Dinaciclib] (0.1 nM) | 98.5 | 99.3 | 98.4 | 97.1 | 99 | 100 | 103 | 109 | 99 | 106 | 99.6 | 102 | 93.8 | 104 | 103 | 110 | 102 | 102 | 82.8
4 | N[C@@H](Cc1ccc(N(CCCl)CCCl)cc1)C(=O)O [Melphalan] (1.25 nM) | 100 | 109 | 96.5 | 98.7 | 109 | 95.1 | 96.3 | 97.8 | 93.3 | 104 | 100 | 98.7 | 91.7 | 106 | 116 | 93.2 | 103 | 95.5 | 114
5 | C[C@]12C=CC(=O)C=C1CC[C@@H]1[C@@H]2C(=O)C[C@@]2(C)[C@H]1CC[C@]2(O)C(=O)CO [Prednisone] (10 nM) | 98.7 | 101 | 99.9 | 103 | 96.7 | 104 | 123 | 98 | 118 | 109 | 104 | 101 | 98.4 | 96.3 | 96.9 | 108 | 95.8 | 107 | 118
6 | Cc1c(C(=O)Nc2ccc(N3C[C@@H](C)O[C@@H](C)C3)nc2)cccc1-c1ccc(OC(F)(F)F)cc1 [Erismodegib] (10 nM) | 99.2 | 91.9 | 95.2 | 92.9 | 101 | 91.9 | 69.9 | 99.6 | 81.8 | 86 | 91.7 | 93.4 | 86.6 | 95.5 | 104 | 94.6 | 96.3 | 101 | 127
7 | NC1(c2ccc(-c3nc4ccn5c(=O)[nH]nc5c4cc3-c3ccccc3)cc2)CCC1 [MK-2206] (1 nM) | 103 | 104 | 95.9 | 111 | 96.5 | 109 | 112 | 92.9 | 100 | 106 | 99.2 | 103 | 101 | 96.5 | 105 | 112 | 92.6 | 104 | 80.6
8 | NC(=O)c1cccc2cn(-c3ccc([C@@H]4CCCNC4)cc3)nc12 [MK-4827] (10 nM) | 101 | 107 | 106 | 110 | 98.4 | 104 | 83.4 | 101 | 105 | 114 | 107 | 107 | 98.6 | 93.7 | 104 | 108 | 96.9 | 104 | 125
9 | Cc1c(C(=O)Nc2ccc(N3C[C@@H](C)O[C@@H](C)C3)nc2)cccc1-c1ccc(OC(F)(F)F)cc1 [Erismodegib] (1 nM) | 99 | 85.3 | 97.8 | 93.9 | 91.6 | 96.7 | 91.3 | 93.8 | 96.1 | 84.4 | 99.2 | 93.8 | 99.8 | 94.1 | 102 | 91.7 | 96.1 | 97.5 | 88.2
10 | CC[C@H](CC#N)OC(=O)N[C@@H](C)c1cccc(NC(=O)Nc2ccc(-c3cnco3)c(OC)c2)c1 [AVN944] (1 nM) | 96.1 | 91.1 | 97 | 89.2 | 97.8 | 93.5 | 95.7 | 98.5 | 99.6 | 99.1 | 96.7 | 93.2 | 97.2 | 99.4 | 90.3 | 99.8 | 103 | 97.9 | 112
